Laboratory results published in patent publication US9999622B2, “Pyrazolothiazole compound and medicine comprising same” (NIPPON SHINYAKU CO., LTD., priority 2014, dated 2018).

Legend:
Assay type in all cases: biochemical
[1] = molecular target: T1, JAK1 (Homo sapiens, UniProt P23458); assay: JAK tyrosine kinase inhibitory activity in the presence of 1 mM ATP (ELISA), JAK1
T1 construct: purchased Carna Biosciences, Inc
Procedure: (§1) 1. Preparation of Test Compound
(§2) The test compound was dissolved in dimethyl sulfoxide (DMSO) to 10 mM and further diluted with DMSO to the concentrations of 1000, 100, 10, 1, 0.1 and 0.01 μM, respectively. For JAK1, these solutions of the test compound at the six concentrations 10 mM, 1000 μM, 100 μM, 10 μM, 1 μM and 0.1 μM were used. For JAK2 and JAK3, these solutions of the test compound at the six concentrations 1000 μM, 100 μM, 10 μM, 1 μM, 0.1 μM and 0.01 μM were used. The test compound solutions were diluted further to 20-fold with an assay buffer to obtain a sample solution. 15 mM Tris-HCl (pH7.5), 0.01 (v/v) % Tween-20 and 1 mM dithiothreitol were used as an assay buffer. DMSO was diluted to 20-fold with the assay buffer and was used as a negative control.
(§3) 2. JAK Tyrosine Kinase Inhibitory Activity in the Presence of 1 mM Atp
(§4) The activity was determined by ELISA method. Each of the sample solutions was added to a streptavidine coated 96-well plate (DELFIA Strip Plate 8×12 well, PerkinElmer) at 10 μL/well (n=2). […] Finally, JAK tyrosine kinase (Carna Biosciences, Inc.), which was previously diluted with the assay buffer to 7.5 nM for JAK1 and 0.75 nM for JAK2 and JAK3, was added to the plate at 20 μL/well, and the plate was incubated at 30° C. for 1 h. The plate was washed four times with buffer (50 mM Tris-HCl (pH 7.5), 150 mM NaCl, 0.02 (v/v) % Tween-20). A blocking buffer (0.1% Bovine Serum Albumin, 50 mM Tris-HCl (pH 7.5), 150 mM NaCl, 0.02 (v/v) % Tween-20) was added to the plate at 150 μL/well and the plate was blocked at 30° C. for 1 h. The blocking buffer was removed, and a horse radish peroxidase-labeled anti-phosphorylated tyrosine antibody (BD Biosciences, Inc.) (diluted to 10000-fold with the blocking buffer) was added to the plate at 100 μL/well, and the plate was incubated at 30° C. for 30 min. The plate was washed with the washing buffer four times, and 3,3′,5,5′-tetramethylbenizidine solution (Nacalai Tesque) was added to the plate at 100 μL/well to develop the color for 10 minutes. To the plate was added 0.1 M sulfuric acid at 100 μL/well to stop the reaction. The absorbance at 450 nm was measured using a microplate reader (BIO-RAD).
(§5) 3. Analysis of the Results

[2] = molecular target: T2, JAK2 (Homo sapiens, UniProt O60674); assay: JAK tyrosine kinase inhibitory activity in the presence of 1 mM ATP (ELISA), JAK2
T2 construct: purchased Carna Biosciences, Inc
T2 sequence (O60674 whole entry): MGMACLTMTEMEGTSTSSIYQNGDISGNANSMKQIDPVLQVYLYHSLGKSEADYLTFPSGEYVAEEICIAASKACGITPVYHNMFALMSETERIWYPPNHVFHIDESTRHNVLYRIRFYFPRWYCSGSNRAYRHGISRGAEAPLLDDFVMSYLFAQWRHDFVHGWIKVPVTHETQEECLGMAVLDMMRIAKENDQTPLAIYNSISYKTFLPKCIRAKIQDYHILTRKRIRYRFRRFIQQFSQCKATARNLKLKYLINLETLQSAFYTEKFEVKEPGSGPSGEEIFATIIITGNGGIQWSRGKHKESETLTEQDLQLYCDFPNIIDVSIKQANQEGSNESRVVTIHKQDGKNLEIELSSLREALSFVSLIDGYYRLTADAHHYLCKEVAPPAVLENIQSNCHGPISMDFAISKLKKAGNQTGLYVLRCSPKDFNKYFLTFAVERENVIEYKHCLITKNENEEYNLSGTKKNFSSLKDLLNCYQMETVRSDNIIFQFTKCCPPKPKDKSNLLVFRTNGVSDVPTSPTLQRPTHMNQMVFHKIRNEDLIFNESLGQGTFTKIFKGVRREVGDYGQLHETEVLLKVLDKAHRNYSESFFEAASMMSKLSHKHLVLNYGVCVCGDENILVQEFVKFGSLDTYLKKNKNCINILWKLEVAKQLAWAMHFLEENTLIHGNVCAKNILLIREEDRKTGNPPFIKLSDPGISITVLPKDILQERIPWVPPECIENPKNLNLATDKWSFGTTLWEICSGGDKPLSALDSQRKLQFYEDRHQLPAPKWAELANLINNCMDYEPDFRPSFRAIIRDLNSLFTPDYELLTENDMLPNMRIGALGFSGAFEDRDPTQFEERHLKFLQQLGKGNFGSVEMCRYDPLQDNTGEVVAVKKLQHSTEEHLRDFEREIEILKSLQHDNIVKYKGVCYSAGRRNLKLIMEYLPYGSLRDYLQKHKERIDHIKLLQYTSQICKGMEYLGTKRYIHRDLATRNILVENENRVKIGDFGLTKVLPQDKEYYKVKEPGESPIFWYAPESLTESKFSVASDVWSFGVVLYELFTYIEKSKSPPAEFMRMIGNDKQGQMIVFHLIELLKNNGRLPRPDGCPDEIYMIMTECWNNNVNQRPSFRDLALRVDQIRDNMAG
Procedure: as §1, §2, §3, §4, §5

[3] = molecular target: T3, JAK3 (Homo sapiens, UniProt P52333); assay: JAK tyrosine kinase inhibitory activity in the presence of 1 mM ATP (ELISA), JAK3
T3 construct: purchased Carna Biosciences, Inc
T3 sequence (P52333 1-1124): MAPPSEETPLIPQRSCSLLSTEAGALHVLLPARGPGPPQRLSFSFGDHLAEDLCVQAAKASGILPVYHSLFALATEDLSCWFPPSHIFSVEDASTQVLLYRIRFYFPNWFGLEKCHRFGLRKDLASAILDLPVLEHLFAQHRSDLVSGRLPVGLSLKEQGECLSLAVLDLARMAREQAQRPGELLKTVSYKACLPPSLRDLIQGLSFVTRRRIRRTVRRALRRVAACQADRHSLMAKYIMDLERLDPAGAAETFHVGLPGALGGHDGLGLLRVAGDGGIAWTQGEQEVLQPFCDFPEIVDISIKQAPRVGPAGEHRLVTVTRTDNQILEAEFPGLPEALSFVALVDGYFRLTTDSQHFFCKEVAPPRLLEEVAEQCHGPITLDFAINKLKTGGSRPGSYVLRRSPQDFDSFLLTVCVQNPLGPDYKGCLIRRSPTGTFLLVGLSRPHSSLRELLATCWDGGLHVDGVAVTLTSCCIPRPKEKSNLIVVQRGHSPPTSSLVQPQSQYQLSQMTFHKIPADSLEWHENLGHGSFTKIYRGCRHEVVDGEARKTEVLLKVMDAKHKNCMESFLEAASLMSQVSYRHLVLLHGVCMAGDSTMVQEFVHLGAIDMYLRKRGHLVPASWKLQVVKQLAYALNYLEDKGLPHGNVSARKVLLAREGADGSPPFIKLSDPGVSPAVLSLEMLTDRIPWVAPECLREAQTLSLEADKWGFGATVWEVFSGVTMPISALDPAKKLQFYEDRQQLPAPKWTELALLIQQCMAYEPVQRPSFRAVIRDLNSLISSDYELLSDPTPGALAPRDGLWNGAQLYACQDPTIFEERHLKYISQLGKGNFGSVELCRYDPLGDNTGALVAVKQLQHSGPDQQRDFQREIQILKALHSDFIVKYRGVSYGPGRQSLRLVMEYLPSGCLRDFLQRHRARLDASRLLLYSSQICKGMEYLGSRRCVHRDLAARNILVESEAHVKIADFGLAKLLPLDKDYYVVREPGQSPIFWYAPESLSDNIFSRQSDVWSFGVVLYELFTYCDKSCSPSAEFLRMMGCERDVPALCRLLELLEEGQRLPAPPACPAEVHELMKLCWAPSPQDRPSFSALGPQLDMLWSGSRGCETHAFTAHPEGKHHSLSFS
Procedure: as §1, §2, §3, §4, §5

T1 sequence (P23458 whole entry): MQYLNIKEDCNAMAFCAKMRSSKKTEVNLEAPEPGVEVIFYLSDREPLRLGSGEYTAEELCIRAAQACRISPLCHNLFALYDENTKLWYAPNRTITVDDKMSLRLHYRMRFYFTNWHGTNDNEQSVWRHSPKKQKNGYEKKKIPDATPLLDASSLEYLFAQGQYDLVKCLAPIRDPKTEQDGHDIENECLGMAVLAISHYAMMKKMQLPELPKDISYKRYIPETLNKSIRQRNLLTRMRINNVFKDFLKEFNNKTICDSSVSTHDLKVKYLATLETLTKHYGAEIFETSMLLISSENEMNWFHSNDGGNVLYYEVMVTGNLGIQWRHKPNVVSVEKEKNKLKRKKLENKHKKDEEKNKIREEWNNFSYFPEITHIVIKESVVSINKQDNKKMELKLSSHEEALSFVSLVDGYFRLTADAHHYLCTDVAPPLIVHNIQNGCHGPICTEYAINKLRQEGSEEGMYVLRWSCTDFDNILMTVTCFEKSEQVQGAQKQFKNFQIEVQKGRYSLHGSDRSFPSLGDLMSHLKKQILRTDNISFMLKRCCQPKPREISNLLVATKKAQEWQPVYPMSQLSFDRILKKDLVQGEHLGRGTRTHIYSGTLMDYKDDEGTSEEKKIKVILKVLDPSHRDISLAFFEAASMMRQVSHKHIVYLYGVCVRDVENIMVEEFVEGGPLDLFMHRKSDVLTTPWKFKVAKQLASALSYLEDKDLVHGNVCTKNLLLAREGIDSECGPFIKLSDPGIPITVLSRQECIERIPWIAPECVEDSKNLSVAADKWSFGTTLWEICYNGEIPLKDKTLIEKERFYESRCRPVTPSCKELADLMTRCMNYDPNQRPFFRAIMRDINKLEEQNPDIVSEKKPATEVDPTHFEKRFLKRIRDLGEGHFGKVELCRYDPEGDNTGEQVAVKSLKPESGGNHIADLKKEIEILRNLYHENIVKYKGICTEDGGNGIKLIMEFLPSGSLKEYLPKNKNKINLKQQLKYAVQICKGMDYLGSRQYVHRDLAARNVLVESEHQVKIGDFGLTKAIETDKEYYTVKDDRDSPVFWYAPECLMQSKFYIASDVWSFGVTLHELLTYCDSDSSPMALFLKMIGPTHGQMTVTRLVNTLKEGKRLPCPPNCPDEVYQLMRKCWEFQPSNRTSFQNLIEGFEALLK

Row | Compound | IC50 [1] [nM] | IC50 [2] [nM] | IC50 [3] [nM]
1 | CC(=O)NC1CCN(C(=O)c2cc(N[C@@H](C)C3CC3)nc(-c3cnn4ccsc34)n2)CC1 [Example 2, N-(1-{[6-{[(1S)-1-Cyclopropylethyl]amino}-2-(pyrazolo[5,1-b][1,3]thiazol-7-yl)pyrimidin-4-yl]carbonyl}piperidin-4-yl)acetamide] | 570 | 2100 | 2700
2 | C[C@H](Nc1cc(C(=O)N2CCC(NC(=O)C3CC3)CC2)nc(-c2cnn3ccsc23)n1)C(C)(C)C [Example 3, N-(1-{[6-{[(2S)-3,3-Dimethylbutan-2-yl]amino}-2-(pyrazolo[5,1-b][1,3]thiazol-7-yl)pyrimidin-4-yl]carbonyl}piperidin-4-yl)cyclopropanecarboxamide] | 62 | 1400 | 3200
3 | CC(=O)NC1CCN(C(=O)c2cc(N[C@@H](C)C(C)(C)C)nc(-c3cnn4ccsc34)n2)CC1 [Example 4, N-(1-{[6-{[(2S)-3,3-Dimethylbutan-2-yl]amino}-2-(pyrazolo[5,1-b][1,3]thiazol-7-yl)pyrimidin-4-yl]carbonyl}piperidin-4-yl)acetamide] | 210 | 730 | 3000
4 | CN(c1cc(C(=O)N2CCC(NC(=O)C3CC3)CC2)nc(-c2cnn3ccsc23)n1)[C@H]1CCC[C@@H]1OC(F)F [Example 5, N-(1-{[6-{[(1S,2S)-2-(Difluoromethoxy)cyclopentyl](methyl)amino}-2-(pyrazolo[5,1-b][1,3]thiazol-7-yl)pyrimidin-4-yl]carbonyl}piperidin-4-yl)cyclopropanecarboxamide] | 130 | 2500 | 1400
5 | CC(=O)NC1CCN(C(=O)c2nc(-c3cnn4ccsc34)nc(N[C@@H](C)C(C)(C)C)c2C)CC1 [Example 6, N-(1-{[6-{[(2S)-3,3-Dimethylbutan-2-yl]amino}-5-methyl-2-(pyrazolo[5,1-b][1,3]thiazol-7-yl)pyrimidin-4-yl]carbonyl}piperidin-4-yl)acetamide] | 240 | 1800 | 2800
6 | Cc1c(N[C@@H](C)C(C)(C)C)nc(-c2cnn3ccsc23)nc1C(=O)N1CCC(NC(=O)C2CC2)CC1 [Example 7, N-(1-{[6-{[(2S)-3,3-Dimethylbutan-2-yl]amino}-5-methyl-2-(pyrazolo[5,1-b][1,3]thiazol-7-yl)pyrimidin-4-yl]carbonyl}piperidin-4-yl)cyclopropanecarboxamide] | 69 | > 10000 | 2700
7 | O=C(NC1CCN(C(=O)c2cc(NCC3(COC(F)F)CC3)nc(-c3cnn4ccsc34)n2)CC1)C1CC1 [Example 8, N-[1-({6-[({1-[(Difluoromethoxy)methyl]cyclopropyl}methyl)amino]-2-(pyrazolo[5,1-b][1,3]thiazol-7-yl)pyrimidin-4-yl}carbonyl)piperidin-4-yl]cyclopropanecarboxamide] | 52 | 2400 | 3800
8 | O=C(NC1CCN(C(=O)c2cc(NCC3(COC(F)F)CCC3)nc(-c3cnn4ccsc34)n2)CC1)C1CC1 [Example 9, N-[1-({6-[({1-[(Difluoromethoxy)methyl]cyclobutyl}methyl)amino]-2-(pyrazolo[5,1-b][1,3]thiazol-7-yl)pyrimidin-4-yl}carbonyl)piperidin-4-yl]cyclopropanecarboxamide] | 19 | 960 | 2000
9 | O=C(NC1CCN(C(=O)c2cc(NCC3(COC(F)F)CCOCC3)nc(-c3cnn4ccsc34)n2)CC1)C1CC1 [Example 11, N-[1-({6-[({4-[(Difluoromethoxy)methyl]tetrahydro-2H-pyran-4-yl}methyl)amino]-2-(pyrazolo[5,1-b][1,3]thiazol-7-yl)pyrimidin-4-yl}carbonyl)piperidin-4-yl]cyclopropanecarboxamide] | 21 | 2500 | 4800
10 | Cc1c(N[C@@H](C)C2CC2)nc(-c2cnn3ccsc23)nc1C(=O)N1CCC(NC(=O)C2CC2)CC1 [Example 12, N-(1-{[6-{[(1S)-1-Cyclopropylethyl]amino}-5-methyl-2-(pyrazolo[5,1-b][1,3]thiazol-7-yl)pyrimidin-4-yl]carbonyl}piperidin-4-yl)cyclopropanecarboxamide] | 120 | 2200 | 1800
11 | CC(=O)NC1CCN(C(=O)c2nc(-c3cnn4ccsc34)nc(N[C@@H](C)C3CC3)c2C)CC1 [Example 13, N-(1-{[6-{[(1S)-1-Cyclopropylethyl]amino}-5-methyl-2-(pyrazolo[5,1-b][1,3]thiazol-7-yl)pyrimidin-4-yl]carbonyl}piperidin-4-yl)acetamide] | 400 | 2400 | 1600
12 | O=C(NC1CCN(C(=O)c2cc(N[C@H]3CCC[C@@H]3OC(F)F)nc(-c3cnn4ccsc34)n2)CC1)C1CC1 [Example 14, N-(1-{[6-{[(1S,2S)-2-(Difluoromethoxy)cyclopentyl]amino}-2-(pyrazolo[5,1-b][1,3]thiazol-7-yl)pyrimidin-4-yl]carbonyl}piperidin-4-yl)cyclopropanecarboxamide] | 69 | 1700 | 1500
13 | COC(=O)NC1CCN(C(=O)c2cc(N[C@H](CO)C(C)(C)C)nc(-c3cnn4ccsc34)n2)CC1 [Example 63, Methyl (1-{[6-{[(2S)-1-hydroxy-3,3-dimethylbutan-2-yl]amino}-2-(pyrazolo[5,1-b][1,3]thiazol-7-yl)pyrimidin-4-yl]carbonyl}piperidin-4-yl)carbamate] | 180 | 7300 | 
14 | COC(=O)NC1CCN(C(=O)c2cc(OC3CCC3)nc(-c3cnn4ccsc34)n2)CC1 [Example 65, Methyl (1-{[6-(cyclobutyloxy)-2-(pyrazolo[5,1-b][1,3]thiazol-7-yl)pyrimidin-4-yl]carbonyl}piperidin-4-yl)carbamate] | 130 | 3100 | 
15 | COC(=O)NC1CCN(C(=O)c2cc(Oc3cccnc3)nc(-c3cnn4ccsc34)n2)CC1 [Example 156, Methyl (1-{[2-(pyrazolo[5,1-b][1,3]thiazol-7-yl)-6-(pyridin-3-yloxy)pyrimidin-4-yl]carbonyl}piperidin-4-yl)carbamate] | 820 | > 10000 | 
16 | C[C@H](Nc1cc(C(=O)N2CCC(NC(=O)C3CCCC3)CC2)nc(-c2cnn3ccsc23)n1)C1CC1 [Example 166, N-1-[6-[(1S)-1-cyclopropylethyl]amino-2-(pyrazolo[5,1-b][1,3]thiazol-7-yl)pyrimidine-4-carbonyl]piperidin-4-ylcyclopentanecarboxamide] | 280 |  | 1300
